Laboratory results as given in patent US20160022675A1, “PROCESSES FOR PREPARING TETRAHYDROISOQUINOLINES” (BRISTOL-MYERS SQUIBB COMPANY, priority 2013, published 2016).

Legend:
DAT [1] = target: T1, DAT (Homo sapiens, UniProt Q01959); experiment: Competition binding, membranes from HEK cells overexpressing DAT; set-up: expressed in transfected cells; host or cells: HEK cells (membranes); details: radioligand at Kd concentration; HEK cell membranes
Procedure: (§1) Competition binding experiments were performed to determine the in vitro binding potencies (IC50 values) of Compound 1-(4S) for SERT, DAT, and NET. Membranes prepared from human embryonic kidney (HEK) cells overexpressing each transporter were employed. Radioligands were used at their respective affinity constant (Kd) concentrations for each transporter to enable direct comparisons of the IC50 values between assays.

NET [2] = target: NET (Homo sapiens, UniProt P23975); experiment: Competition binding, membranes from HEK cells overexpressing NET; set-up: expressed in transfected cells; host or cells: HEK cells (membranes); details: radioligand at Kd concentration; HEK cell membranes
NET (Homo sapiens, UniProt P23975), sequence (P23975 whole entry): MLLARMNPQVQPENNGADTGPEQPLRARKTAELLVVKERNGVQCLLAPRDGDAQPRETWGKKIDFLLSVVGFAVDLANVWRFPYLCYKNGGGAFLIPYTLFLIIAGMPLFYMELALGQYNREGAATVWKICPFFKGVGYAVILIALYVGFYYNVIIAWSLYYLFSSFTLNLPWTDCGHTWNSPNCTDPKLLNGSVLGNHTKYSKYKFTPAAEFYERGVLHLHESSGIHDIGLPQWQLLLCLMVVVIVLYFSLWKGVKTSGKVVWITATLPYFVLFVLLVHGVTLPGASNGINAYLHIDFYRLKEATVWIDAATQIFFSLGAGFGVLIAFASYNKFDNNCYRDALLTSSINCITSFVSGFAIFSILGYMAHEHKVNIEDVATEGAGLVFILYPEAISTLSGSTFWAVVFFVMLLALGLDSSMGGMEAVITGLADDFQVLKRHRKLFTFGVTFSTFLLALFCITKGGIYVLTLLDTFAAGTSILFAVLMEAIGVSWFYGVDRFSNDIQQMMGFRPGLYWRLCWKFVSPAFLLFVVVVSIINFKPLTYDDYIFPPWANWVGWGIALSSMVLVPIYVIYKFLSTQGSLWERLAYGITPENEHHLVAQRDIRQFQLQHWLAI
Procedure: as §1

Distribution coefficient = type: physicochemical
NET [3] = target: T2, NET (Mus musculus, UniProt O55192); experiment: NET occupancy in the brain, mouse; type: in vivo
T2 construct: from tissue; host or cells: mouse brain
T2 sequence (O55192 whole entry): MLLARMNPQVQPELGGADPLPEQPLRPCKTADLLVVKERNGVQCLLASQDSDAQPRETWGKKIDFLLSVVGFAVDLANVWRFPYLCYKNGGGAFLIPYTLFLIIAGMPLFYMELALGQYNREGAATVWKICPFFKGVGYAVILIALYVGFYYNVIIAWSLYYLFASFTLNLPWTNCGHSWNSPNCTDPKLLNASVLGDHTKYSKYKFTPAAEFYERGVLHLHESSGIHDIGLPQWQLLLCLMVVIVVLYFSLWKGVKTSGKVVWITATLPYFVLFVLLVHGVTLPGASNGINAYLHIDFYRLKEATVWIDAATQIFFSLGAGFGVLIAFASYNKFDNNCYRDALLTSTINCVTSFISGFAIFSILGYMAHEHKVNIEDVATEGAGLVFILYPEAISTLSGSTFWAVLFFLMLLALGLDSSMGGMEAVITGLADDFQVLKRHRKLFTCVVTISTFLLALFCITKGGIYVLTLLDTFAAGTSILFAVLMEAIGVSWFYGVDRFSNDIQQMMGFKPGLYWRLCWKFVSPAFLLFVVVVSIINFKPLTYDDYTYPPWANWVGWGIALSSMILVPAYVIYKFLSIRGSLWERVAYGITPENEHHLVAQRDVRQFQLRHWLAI
Procedure: (§2) The effects of Compound 1-(4S) in the mouse tail suspension model of depression and target site occupancy were assessed to compare occupancies associated with the behavioral response. The mouse tail suspension model is known the art. […] The lowest effective dose of Compound 1-(4S), 0.3 mg/kg, PO, decreased immobility by 77% relative to vehicle-treated controls. […] Administration of Compound 1-(4S) led to dose-dependent occupancy of SERT, NET, and DAT binding sites in the brain. At the lowest behaviorally-effective dose (0.3 mg/kg), occupancies were 86±1% of SERT, 76±3% of NET, and 28±3% of DAT. At 1 mg/kg, occupancies were 89±1%, 82±1% and 54±3% at SERT, NET, and DAT, respectively. Pharmacokinetics and pharmacodynamics (PD) in mouse, rat, and dog focused primarily on DAT occupancy since SERT and NET occupancies were saturated by drug for most, if not all, of the times studied. DAT occupancy increased as a function of increasing plasma exposure. The DAT occupancy to total plasma level could be fitted using a single binding site model and plasma level ED50 (the dose producing 50% effect) values could be calculated.
(§3) To better understand the margin between doses of Compound 1-(4S) that are effective in the mouse tail suspension models and those that lead to monoamine-related side effects, locomotor activity was examined to assess psychostimulant properties and stereotypy was examined to assess more severe DA-related side effects. Increased body temperature, another effect that has been attributed to DA pharmacology, was also studied. In the mouse, Compound 1-(4S) increased locomotor activity and stereotypy scores at doses of 3.0 mg/kg and 10 mg/kg, respectively. Thus, the margin between the Compound 1-(4S) effective dose in the mouse tail suspension and increased locomotor activity was 10-fold and the margin versus activity in stereotypy was 30-fold. The thermogenic effect of Compound 1-(4S) was studied in mice and rats by measuring changes in rectal temperature following administration of the compound. […] The onset of the thermogenesis was earlier as the dose was increased. […]

DAT [4] = target: T1, DAT; experiment: [3H]DA uptake into HEK293/hDAT cells; type: cell-based; set-up: expressed in transfected cells; host or cells: HEK293; details: read-out: Dopamine reuptake IC50 ([3H]DA uptake)
Description: Cell-based assays were used to determine the ability of Compound 1-(4S) to inhibit reuptake of 3H-labeled DA ([3H]DA), NE ([3H]NE), and 5-HT ([3H]5-HT).

[5] = pH-Solubility profile (aqueous); type: physicochemical; details: aqueous solution, aqueous buffer; solution pH 6.5 and above
[6] = test system: mouse tail suspension model of depression; experiment: Mouse tail suspension model of depression; type: in vivo; details: PO
Procedure: as §2

rectal temperature [7] = experiment: Thermogenic effect (rectal temperature), rat; type: in vivo
Description: (§4) To better understand the margin between doses of Compound 1-(4S) that are effective in the mouse tail suspension models and those that lead to monoamine-related side effects, locomotor activity was examined to assess psychostimulant properties and stereotypy was examined to assess more severe DA-related side effects. Increased body temperature, another effect that has been attributed to DA pharmacology, was also studied. In the mouse, Compound 1-(4S) increased locomotor activity and stereotypy scores at doses of 3.0 mg/kg and 10 mg/kg, respectively. Thus, the margin between the Compound 1-(4S) effective dose in the mouse tail suspension and increased locomotor activity was 10-fold and the margin versus activity in stereotypy was 30-fold. The thermogenic effect of Compound 1-(4S) was studied in mice and rats by measuring changes in rectal temperature following administration of the compound. […] The onset of the thermogenesis was earlier as the dose was increased. The levels of SERT and NET occupancy were over 80% and appeared saturated across the doses tested. The DAT occupancy was dose-dependent, with 55±5.7% at 1.0 mg/kg, 74±6% at 3.0 mg/kg, and 83±0.8% at 10 mg/kg. […] The onset of the temperature increase was earlier at the highest dose of 10 mg/kg. […] The DAT occupancy was 37±8.3%, 55±5.2%, and 71±1.7% at 1.0, 3.0, and 10 mg/kg, respectively. Consistent with data obtained with mice, the thermogenic effect of Compound 1-(4S) is dose dependently related to DAT occupancy and at least 50% DAT occupancy is needed for this effect.

rectal temperature [8] = experiment: Thermogenic effect (rectal temperature), mouse; type: in vivo; details: 4 hours after doses of 1, 3, and 10 mg/kg
Description: as §4, with “Consistent with data obtained with mice, the thermogenic effect of Compound 1-(4S) is dose dependently related to DAT occupancy and at least 50% DAT occupancy is needed for this effect.” left out

SERT = target: T3, SERT (Mus musculus, UniProt Q60857); experiment: SERT occupancy in the brain, mouse; type: in vivo
T3 construct: from tissue; host or cells: mouse brain
T3 sequence (Q60857 whole entry): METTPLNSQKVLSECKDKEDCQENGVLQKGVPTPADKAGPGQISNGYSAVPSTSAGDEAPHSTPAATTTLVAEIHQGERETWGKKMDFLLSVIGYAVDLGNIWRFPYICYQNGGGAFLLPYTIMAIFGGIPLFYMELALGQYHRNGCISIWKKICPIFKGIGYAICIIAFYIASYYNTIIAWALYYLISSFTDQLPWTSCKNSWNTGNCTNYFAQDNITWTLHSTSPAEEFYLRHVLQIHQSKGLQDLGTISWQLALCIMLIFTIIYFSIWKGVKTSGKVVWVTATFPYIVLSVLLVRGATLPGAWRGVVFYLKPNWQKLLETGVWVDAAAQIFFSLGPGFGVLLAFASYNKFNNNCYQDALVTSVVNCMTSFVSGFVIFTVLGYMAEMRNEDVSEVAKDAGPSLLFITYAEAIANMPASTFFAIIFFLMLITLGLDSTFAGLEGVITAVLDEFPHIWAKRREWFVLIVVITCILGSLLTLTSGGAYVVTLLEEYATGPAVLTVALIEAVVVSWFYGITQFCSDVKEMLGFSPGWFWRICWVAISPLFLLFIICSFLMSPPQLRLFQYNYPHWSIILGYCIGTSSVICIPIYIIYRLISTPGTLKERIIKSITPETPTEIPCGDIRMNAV
Procedure: as §2, §3

DAT [9] = target: DAT (Canis lupus familiaris, UniProt B6EUL3); experiment: DAT occupancy, dog; type: in vivo; details: single binding site model, read-out: total plasma concentration producing 50% effect (EC50), DAT occupancy
DAT (Canis lupus familiaris, UniProt B6EUL3), sequence (B6EUL3 1-617): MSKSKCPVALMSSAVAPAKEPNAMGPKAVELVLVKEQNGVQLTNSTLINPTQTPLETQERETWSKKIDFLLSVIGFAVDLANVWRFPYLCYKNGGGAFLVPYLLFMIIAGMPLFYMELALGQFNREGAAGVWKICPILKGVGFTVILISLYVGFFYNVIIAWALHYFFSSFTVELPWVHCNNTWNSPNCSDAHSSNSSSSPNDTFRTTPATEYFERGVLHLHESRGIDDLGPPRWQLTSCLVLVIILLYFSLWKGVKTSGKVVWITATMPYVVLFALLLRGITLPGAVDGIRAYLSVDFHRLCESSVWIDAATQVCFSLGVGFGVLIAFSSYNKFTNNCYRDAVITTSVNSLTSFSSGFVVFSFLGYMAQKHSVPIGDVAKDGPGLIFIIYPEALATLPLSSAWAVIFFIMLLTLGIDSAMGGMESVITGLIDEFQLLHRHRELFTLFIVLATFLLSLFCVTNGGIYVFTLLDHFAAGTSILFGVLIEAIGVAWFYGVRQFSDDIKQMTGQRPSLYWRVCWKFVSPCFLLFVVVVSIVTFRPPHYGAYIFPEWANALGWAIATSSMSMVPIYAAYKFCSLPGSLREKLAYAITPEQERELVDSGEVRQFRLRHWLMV
Procedure: as §2

[10] = mouse brain, 0.3 mg/kg, tail suspension study
[11] = mouse brain, 1 mg/kg, tail suspension study
[12] = mouse, thermogenesis study, across doses 1, 3, 10 mg/kg

T1 sequence (Q01959 whole entry): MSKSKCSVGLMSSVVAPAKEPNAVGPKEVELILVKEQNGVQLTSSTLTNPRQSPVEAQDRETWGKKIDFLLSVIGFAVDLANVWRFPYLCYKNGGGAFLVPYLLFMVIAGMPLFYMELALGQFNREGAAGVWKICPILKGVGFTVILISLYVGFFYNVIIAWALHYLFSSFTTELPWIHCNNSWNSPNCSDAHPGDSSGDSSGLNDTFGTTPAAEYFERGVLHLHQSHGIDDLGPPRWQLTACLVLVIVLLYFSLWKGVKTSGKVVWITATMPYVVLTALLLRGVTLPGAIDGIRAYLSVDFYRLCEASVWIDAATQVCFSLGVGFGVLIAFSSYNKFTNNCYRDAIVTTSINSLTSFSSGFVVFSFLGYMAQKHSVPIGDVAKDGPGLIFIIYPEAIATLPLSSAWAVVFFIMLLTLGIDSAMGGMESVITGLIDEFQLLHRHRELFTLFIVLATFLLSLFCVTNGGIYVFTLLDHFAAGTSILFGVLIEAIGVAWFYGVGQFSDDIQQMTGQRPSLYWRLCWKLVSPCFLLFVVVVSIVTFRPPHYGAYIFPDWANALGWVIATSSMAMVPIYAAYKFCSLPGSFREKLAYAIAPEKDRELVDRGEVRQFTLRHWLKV

SMILES: CN1Cc2cc(-c3ccc(N)nn3)ccc2[C@H](c2ccc3ccccc3c2)C1 [Compound 1-(4S), 6-[(4S)-1,2,3,4-tetrahydro-2-methyl-4-(2-naphthalenyl)-7-isoquinolinyl]-3-pyridazinamine]
- IC50 (DAT [1]): 5.67 ± 0.36 nM
- IC50 (NET [2]): 7.99 ± 0.43 nM
- Distribution coefficient Log Do/b (Distribution coefficient; pH 6.5): 3.10
- Distribution coefficient Log Do/b (Distribution coefficient; pH 7.4): 3.82
- receptor occupancy at 0.3 mg/kg (NET [3]; [10]): 76 ± 3%
- receptor occupancy at 1 mg/kg (NET [3]; [11]): 82 ± 1%
- NET occupancy (NET [3]; [12]): over 80%
- IC50 (DAT [4]): 31.5 ± 2.5 nM
- solubility [5]: ≤ 1 µg/mL
- decrease in immobility relative to vehicle-treated controls ([6]; 0.3 mg/kg): 77%
- decrease in immobility ([6]; 1.0 mg/kg): 91%
- lowest effective dose, tail suspension [6]: 0.3 mg/kg
- significant increase in rectal temperature (rectal temperature [7]; rat, 1.0 mg/kg): not
- change in rectal temperature (rectal temperature [7]; rat, doses of 3.0 and 10 mg/kg): Significant increases
- DAT occupancy needed for the thermogenic effect (rectal temperature [7]; rats, consistent with mice): at least 50%
- change in rectal temperature (rectal temperature [8]): significant increases
- receptor occupancy at 0.3 mg/kg (SERT; [10]): 86 ± 1%
- receptor occupancy at 1 mg/kg (SERT; [11]): 89 ± 1%
- SERT occupancy (SERT; [12]): over 80%
- EC50 (DAT [9]): 103 nM
